Reference: ChEMBL document CHEMBL4706623, “GPR52 Antagonist Reduces Huntingtin Levels and Ameliorates Huntington's Disease-Related Phenotypes” (J Med Chem, 2021)

Biological target: G-protein coupled receptor 52 (Homo sapiens, UniProt Q9Y2T5)
Experiment: Antagonist activity at GPR52 (unknown origin) expressed in HEK293 cells assessed as inhibition of WO459-induced cAMP accumulation preincubated for 15 mins followed by WO459 addition and measured after 30 mins by LANCE Ultra cAMP kit based microplate reader analysis
Assay type: functional, cell-based
Conditions: read-out: IC50

Chain of G-protein coupled receptor 52 (Q9Y2T5 whole entry): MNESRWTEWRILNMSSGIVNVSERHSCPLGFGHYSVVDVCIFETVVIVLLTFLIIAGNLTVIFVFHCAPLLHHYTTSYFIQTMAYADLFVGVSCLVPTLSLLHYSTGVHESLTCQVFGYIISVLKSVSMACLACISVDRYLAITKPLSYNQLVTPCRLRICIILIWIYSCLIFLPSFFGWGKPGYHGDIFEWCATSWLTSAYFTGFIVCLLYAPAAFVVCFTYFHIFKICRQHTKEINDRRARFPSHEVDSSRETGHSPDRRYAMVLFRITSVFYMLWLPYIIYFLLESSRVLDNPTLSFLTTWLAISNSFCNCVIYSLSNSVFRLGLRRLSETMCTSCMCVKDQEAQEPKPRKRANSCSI

IC50 [µM] | Structure (SMILES)
3.29 | O=C(/C=C/CCc1ccccc1)c1cccc2ccccc12
1.23 | O=C(/C=C/CCc1ccccc1)c1ccccc1-c1ccccc1
8.13 | O=C(/C=C/CCc1ccccc1)c1cccc(-c2ccccc2)c1
3.54 | O=C(/C=C/CCc1ccccc1)c1ccc2ccccc2c1
5.45 | O=C(/C=C/CCc1ccccc1)CCc1ccccc1
